The values that follow are results of earlier work, collected in patent US20100105640A1, “Aromatase Inhibitors for Emergency Contraception” (priority 2005, published 2010).

The conditions of the data set: Yuzpe n = 979, Levonorgestrel n = 977.

As to `C#C[C@]1(O)CC[C@H]2[C@@H]3CCC4=CC(=O)CC[C@@H]4[C@H]3CC[C@@]21CC` [Levonorgestrel, levonorgestrel], the “Percent with symptom (95% confidence interval): Breast tenderness” value is recorded as 10.8%, the “Percent with symptom (95% confidence interval): Dizziness” value is listed as 11.2%, the “Percent with symptom (95% confidence interval): Fatigue” value is 16.9% and the “Percent with symptom (95% confidence interval): Headache” value is given as 16.8%. For the same compound, the “Percent with symptom (95% confidence interval): Low abdominal pain” value was 17.6%, the “Percent with symptom (95% confidence interval): Nausea” value is on record as 23.1% and the “Percent with symptom (95% confidence interval): Vomiting” value was 5.6%. For the same compound, the “Percent with symptom (95% confidence interval): All other adverse effects” value (mostly diarrhea and some irregular bleeding or spotting) was 13.5%.
